From patent publication EP3409761B1, “CULTURE MEDIUM COMPOSITION, AND METHOD FOR CULTURING CELL OR TISSUE USING SAID COMPOSITION” (Nissan Chemical Corporation, priority 2012, dated 2014)

Columns and labels:
Format in all cases: cell-based
[1] = tested on: human cervical cancer cell line HeLa; test: Comparison with single layer culture method using agent for inducing apoptosis; settings: day 4
Procedure: This aqueous solution was sterilized at 121°C for 20 min in an autoclave. […] Each plate was cultured by being stood still in a CO2 incubator (37°C, 5% CO2). […] To the culture medium on day 4 was added an ATP reagent (150 µL) (CellTiter-Glo (registered trade mark) Luminescent Cell Viability Assay, manufactured by Promega) to give a suspension, which was stood for about 10 min at room temperature, and the luminescence intensity (RLU value) was measured by FlexStation3 (manufactured by Molecular Devices), and the number of viable cells was measured by subtracting the luminescence value of the medium alone. For WST-8 measurement, a WST-8 solution (manufactured by DOJINDO Laboratories, 15 µL) was added, the mixture was incubated at 37°C for 100 min, the absorbance at 450 nm was measured by an absorbance spectrometer (manufactured by Molecular Devices, SPECTRA MAX 190), and the number of viable cells was measured by subtracting the absorbance of the medium alone.

[2] = tested on: human cervical cancer cell line HeLa; test: Comparison with single layer culture method in cell proliferation test using anticancer drug; settings: day 4
Procedure: This aqueous solution was sterilized at 121°C for 20 min in an autoclave. […] Each plate was cultured by being stood still in a CO2 incubator (37°C, 5% CO2). […] The anticancer drug used was Adriamycin (manufactured by WAKO), Paclitaxel (manufactured by WAKO) or Mitomycin C (manufactured by WAKO). To the culture medium on day 4 was added an ATP reagent (150 µL) (CellTiter-Glo (registered trade mark) Luminescent Cell Viability Assay, manufactured by Promega) to give a suspension, which was stood for about 10 min at room temperature, and the luminescence intensity (RLU value) was measured by FlexStation3 (manufactured by Molecular Devices), and the number of viable cells was measured by subtracting the luminescence value of the medium alone. For WST-8 measurement, a WST-8 solution (manufactured by DOJINDO Laboratories, 15 µL) was added, the mixture was incubated at 37°C for 100 min, the absorbance at 450 nm was measured by an absorbance spectrometer (manufactured by Molecular Devices, SPECTRA MAX 190), and the number of viable cells was measured by subtracting the absorbance of the medium alone.

[3] = tested on: human cervical cancer cell line HeLa; test: Cell proliferation test using various anticancer drugs; settings: DAG 0.030% medium; for cell density: 5 days later
Procedure: This aqueous solution was sterilized at 121°C for 20 min in an autoclave. […] The anticancer drug used was Adriamycin (manufactured by WAKO), Paclitaxel (manufactured by WAKO) or Mitomycin C (manufactured by WAKO).
Successively, this plate was cultured by being stood still in a CO2 incubator (37°C, 5% CO2) for 7 days. After culturing for 3, 5, 7 days, to the culture medium was added a WST-8 solution (manufactured by DOJINDO Laboratories, 20 µL), and the mixture was incubated at 37°C for 100 min. The absorbance at 450 nm was measured by an absorbance spectrometer (manufactured by Molecular Devices, SPECTRA MAX 190), and the number of viable cells was measured by subtracting the absorbance of the medium alone. The culture medium containing the cells after 5 days of culture was stirred with a pipette and the obtained stirred solution (20 µL) was mixed with Trypan Blue stain 0.4% (manufactured by Invitrogen, 20 µL) and the cell density was measured under a microscope.

[4] = agent 10 µM, deacylated gellan gum addition group (0.015%)
[5] = agent 10 µM, single layer culture group
[6] = agent 100 µM, deacylated gellan gum addition group (0.015%)
[7] = agent 100 µM, single layer culture group
[8] = agent 1 µM, deacylated gellan gum addition group (0.015%)
[9] = agent 1 µM, single layer culture group
[10] = drug 0.005 µM, deacylated gellan gum addition group (0.015%)
[11] = drug 0.005 µM, single layer culture group
[12] = drug 0.05 µM, deacylated gellan gum addition group (0.015%)
[13] = drug 0.05 µM, single layer culture group
[14] = drug 0.5 µM, deacylated gellan gum addition group (0.015%)
[15] = drug 0.5 µM, single layer culture group

What does the source list for `C[C@@H]1C[C@@H]([C@H](O)CC2CC(=O)NC(=O)C2)C(=O)[C@@H](C)C1` [Cycloheximide]?
% Control value of the RLU value (ATP measurement) [1, 4]: 9 % Control; % Control value of the absorbance at 450 nm (WST-8 measurement) [1, 4]: 4 % Control; % Control value of the RLU value (ATP measurement) [1, 5]: 29 % Control; % Control value of the absorbance at 450 nm (WST-8 measurement) [1, 5]: 21 % Control; % Control value of the RLU value (ATP measurement) [1, 6]: 4 % Control; % Control value of the absorbance at 450 nm (WST-8 measurement) [1, 6]: 1 % Control; % Control value of the RLU value (ATP measurement) [1, 7]: 9 % Control; % Control value of the absorbance at 450 nm (WST-8 measurement) [1, 7]: 7 % Control

With `C[C@@H]1C[C@H]2[C@@H]3CCC4=CC(=O)C=C[C@]4(C)[C@@]3(F)[C@@H](O)C[C@]2(C)[C@@]1(O)C(=O)CO` [Dexamethasone] as the compound, how does the “% Control value of the RLU value (ATP measurement)” value (“% Control value of the RLU value” below) [1, 8] read?
Its value is 232 % Control.

What about the “% Control value of the absorbance at 450 nm (WST-8 measurement)” value (“% Control value of the absorbance” below) [1, 8] of the same compound?
The value was 184 % Control.

What about the “% Control value of the absorbance” value [1, 9] of the same compound?
Its value is 89 % Control.

What about the “% Control value of the RLU value” value [1, 4] of the same compound?
The value was 241 % Control.

And the “% Control value of the absorbance” value [1, 4]?
The value was 173 % Control.

And the “% Control value of the RLU value” value [1, 5]?
The value was 116 % Control.

And the “% Control value of the absorbance” value [1, 5]?
The value was 92 % Control.

Which “% Control value of the RLU value” value [1, 8] does the source give for `COc1cc([C@@H]2c3cc4c(cc3[C@@H](O[C@@H]3O[C@@H]5CO[C@@H](C)O[C@H]5[C@H](O)[C@H]3O)[C@H]3COC(=O)[C@H]23)OCO4)cc(OC)c1O` [Etoposide] here?
Its value is 35 % Control.

What about the “% Control value of the absorbance” value [1, 8] of the same compound?
The value was 39 % Control.

And the “% Control value of the RLU value” value [1, 9]?
Its value is 64 % Control.

And the “% Control value of the absorbance” value [1, 9]?
Its value is 68 % Control.

What about the “% Control value of the RLU value” value [1, 4] of the same compound?
The value was 24 % Control.

And the “% Control value of the absorbance” value [1, 4]?
Its value is 23 % Control.

What about the “% Control value of the RLU value” value [1, 5] of the same compound?
The value was 65 % Control.

And the “% Control value of the absorbance” value [1, 5]?
The value was 63 % Control.

What does the source list for `CO[C@@]12[C@H](COC(N)=O)C3=C(C(=O)C(C)=C(N)C3=O)N1C[C@@H]1N[C@@H]12` [Mitomycin C]?
% Control value of the RLU value (ATP measurement) [2, 10]: 83 % Control; % Control value of the absorbance at 450 nm (WST-8 measurement) [2, 10]: 94 % Control; % Control value of the RLU value (ATP measurement) [2, 11]: 99 % Control; % Control value of the absorbance at 450 nm (WST-8 measurement) [2, 11]: 101 % Control; % Control value of the RLU value (ATP measurement) [2, 12]: 48 % Control; % Control value of the absorbance at 450 nm (WST-8 measurement) [2, 12]: 37 % Control; % Control value of the RLU value (ATP measurement) [2, 13]: 89 % Control; % Control value of the absorbance at 450 nm (WST-8 measurement) [2, 13]: 83 % Control; % Control value of the RLU value (ATP measurement) [2, 14]: 29 % Control; % Control value of the absorbance at 450 nm (WST-8 measurement) [2, 14]: 12 % Control; % Control value of the RLU value (ATP measurement) [2, 15]: 86 % Control; % Control value of the absorbance at 450 nm (WST-8 measurement) [2, 15]: 71 % Control; cell density ([3]; drug 0.01 µM): 1.0 10^4 cells/mL; cell number (absorbance at 450 nm, WST-8) ([3]; drug 0.01 µM, day 3): 0.089; cell number (absorbance at 450 nm, WST-8) ([3]; drug 0.01 µM, day 5): 0.016; cell number (absorbance at 450 nm, WST-8) ([3]; drug 0.01 µM, day 7): < 0; cell density ([3]; drug 0.1 µM): 0.4 10^4 cells/mL; cell number (absorbance at 450 nm, WST-8) ([3]; drug 0.1 µM, day 3): 0.032; cell number (absorbance at 450 nm, WST-8) ([3]; drug 0.1 µM, day 5): < 0; cell number (absorbance at 450 nm, WST-8) ([3]; drug 0.1 µM, day 7): < 0; cell density ([3]; drug 1 µM): 0.1 10^4 cells/mL; cell number (absorbance at 450 nm, WST-8) ([3]; drug 1 µM, day 3): < 0; cell number (absorbance at 450 nm, WST-8) ([3]; drug 1 µM, day 5): < 0; cell number (absorbance at 450 nm, WST-8) ([3]; drug 1 µM, day 7): < 0
